Experimental data from US20030035843A1, “Method for processing and preserving collagen-based tissues for transplantation” (LifeCell Corporation, a Delaware corporation, priority 1990, published 2003).

Tests used:
[1] = test system: porcine skin; assay: Separation of epidermis and dermis of porcine skin by salt incubation; conditions: 1 molar, 48 hours
[2] = test system: human cadaver skin; assay: Removal of epidermis/keratinocytes from human cadaver skin by enzyme or salt incubation
Source text: Alternatively, enzymes may be used to accomplish decellularization, including but not limited to dispase II, trypsin, and thermolysin. These enzymes react with different components of collagen and intercellular connections in achieving their effects. Dispase II attacks Type IV collagen, which is a component of the lamina densa and anchoring fibrils of the basement membrane. Thermolysin attacks the bulbous phemphigoid antigen in the hemidesmosome of the basal layer of keratinocytes. Trypsin attacks the desmosome complex between cells. Due to the proteolytic nature of these enzymes, care must be taken that cellular removal occurs without significant damage to the extracellular matrix, including the basement membrane complex. This is a function of concentration, time and temperature. If used for too long a time or at too high a concentration, dispase II for example can completely remove the basement membrane complex from the dermis.

[Cl-].[Na+] [sodium chloride]
separation of the epidermis and dermis [1]: clean separation of the epidermis and dermis without damage to the basement membrane complex | separation of the epidermis and dermis ([2]; 1 molar, 16 hours, human skin): clean separation of the epidermis and dermis without damage to the basement membrane complex

B1: Thermolysin: enzyme used for decellularization; attacks the bulbous phemphigoid antigen in the hemidesmosome (protein, UniProt P00800 233-548, looked up)
Thermolysin: ITGTSTVGVGRGVLGDQKNINTTYSTYYYLQDNTRGNGIFTYDAKYRTTLPGSLWADADNQFFASYDAPAVDAHYYAGVTYDYYKNVHNRLSYDGNNAAIRSSVHYSQGYNNAFWNGSQMVYGDGDGQTFIPLSGGIDVVAHELTHAVTDYTAGLIYQNESGAINEAISDIFGTLVEFYANKNPDWEIGEDVYTPGISGDSLRSMSDPAKYGDPDHYSKRYTGTQDNGGVHINSGIINKAAYLISQGGTHYGVSVVGIGRDKLGKIFYRALTQYLTPTSNFSQLRAAAVQSATDLYGSTSQEVASVKQAFDAVGVK
removal of keratinocytes ([2]; 200 ug/ml, 30 minutes, 4° C., human cadaver skin): essentially remove all keratinocytes
